Tests used:
[1] = test system: other nuclear receptors tested; assay: Receptor-specific transactivation reporter assay in COS-7 cells; format: cell-based, human; details: 10 μM avermectins, Supplementary Fig. S3
Procedure: 30 Receptor-specific ligand
rifampicin; CAR, 5 μM CITCO. […] Luciferase activities
independent experiments. *p<0.001 versus DMSO control.

[2] = test system: KK-Ay mice; assay: High-fat diet fed KK-Ay mice treated 14 days (liver histology, metabolic parameters, GTT, ITT); format: in vivo; details: for insulin sensitivity (ITT) / glucose tolerance (GTT): KK-Ay mice treated 10 days; for insulin sensitivity (ITT): 1 U/kg insulin i.p.; for glucose tolerance (GTT): 1 g/kg glucose i.p.; for serum cholesterol level / serum triglyceride level / body weight / hepatic lipid / steatosis by H&E staining of liver sections / lipid accumulation by oil red O staining of liver sections / liver morphology (colour): KK-Ay mice; for serum cholesterol level / serum triglyceride level / body weight: 1.3 mg/kg i.p. 14 days; for body weight: versus vehicle, eprinomectin and moxidectin groups; for hepatic lipid / steatosis by H&E staining of liver sections / lipid accumulation by oil red O staining of liver sections / liver morphology (colour): high-fat diet, i.p. once daily 14 days, avermectin analogues 1.3 mg/kg, GW4064 30 mg/kg
Procedure: To further confirm the lipid accumulation, we performed oil red O staining of the frozen liver sections (Fig. 2c).
(§1) 10 weeks age KK-Ay mice and C57BL/6J, homozygous FXR deficient (FXR^–/–) mice were maintained under environmentally controlled conditions with free access to standard chow diet and water as described previously. Animal experiments were conducted in the barrier facility of the Laboratory Animal Center, Xiamen University, approved by the Institutional Animal Use and Care Committee of Xiamen University, China, and the methods were carried out in accordance with the approved guidelines. Mice were fed with high fat diet containing 60% fat, 20% protein and 20% carbohydrate (Research Diets, D12492, New Brunswick, USA), and the food intake were measured every second day. […] After 6 h fasting, mice were weighed and sacrificed. Livers were weighed and taken photos, and part of each liver was fixed in 4% paraformaldehyde. Liver histology characterization was analyzed by haematoxylin and eosin (H&E) staining with paraffin-embedded sections by standard procedures. Other tissues were collected and frozen in liquid nitrogen for use, and serums were collected to measure metabolite parameters.
(§2) Fresh liver tissues were embedded in optimum cutting temperature compound (OCT) and cryosectioned. The sections were fixed in 4% paraformaldehyde in PBS, and were stained with 0.3% oil red O according to standard procedures.
Mice treated with compounds for 10 days were fasted for 6 h with free access to water. For the glucose tolerance test (GTT), 1 g/kg of glucose was i.p. injected and blood glucose was measured with the Accu-Check Performa (Roche Applied Science, Mannheim, Germany) at 0, 30, 60, 90, 120,150 and 180 min. For the insulin tolerance test (ITT), 1 U/kg of recombinant human insulin (Novolin 30R; Novo Nordisk, Bagsvaerd, Denmark) was i.p. injected, and blood glucose was measured at 0, 30, 60, 120 and 150 min after insulin injection.
(§3) Serum glucose was analyzed using glucose oxidase method (Applygen, Beijing, China). Serum cholesterol and triglyceride were analyzed using Cholesterol Assay Kit and Triglyceride Assay Kit (Bioassay Systems, USA), respectively. Liver triglyceride was analyzed using Tissue triglyceride assay kit (Applygen, Beijing, China).

[3] = test system: Wild type C57BL/6J mice; assay: High-fat diet fed wild type mice treated with compounds; format: in vivo; details: for serum cholesterol levels / serum glucose levels: in a FXR dependent manner (WT versus KO); for amount of lipid in liver sections (oil red O): wild type mice, high-fat diet, versus vehicle
Source text: To reaffirm that the function of avermectin analogues on lipid metabolism is by directly targeting FXR signaling, we employed wild type mice and FXR gene knockout mice, both fed with high-fat diet, to study the FXR dependency of physiological effects of these avermectin analogues. […] The expression pattern of FXR target genes SHP, BSEP, solute carrier family 51 beta subunit (OSTβ) and AKR1B7 in primary hepatocytes from wild type mice and FXR gene knockout mice further confirmed the FXR-dependent manner of avermectin analogues (Supplementary Fig. S5).
as §1, §2, §3

[4] = target: T1, FXR ligand binding domain (LBD) (Homo sapiens, UniProt Q96RI1); assay: AlphaScreen cofactor binding assay; format: biochemical; details: for coactivators recruitment by FXR (biotin-SRC1–2, biotin-SRC2–3): 0.5 μM compound, Fig. 4a
T1 construct: made in house; host or cells: E. coli BL21 (DE3)
T1 sequence (Q96RI1 262-486 limits assumed): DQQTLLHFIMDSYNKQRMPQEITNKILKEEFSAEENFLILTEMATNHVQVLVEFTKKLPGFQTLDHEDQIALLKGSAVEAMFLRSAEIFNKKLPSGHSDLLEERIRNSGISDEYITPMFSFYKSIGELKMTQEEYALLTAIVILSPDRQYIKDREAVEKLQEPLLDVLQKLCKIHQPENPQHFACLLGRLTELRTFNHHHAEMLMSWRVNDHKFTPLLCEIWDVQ
Procedure: The binding of the cofactor peptide motifs to FXR LBD in response to ligands was determined by AlphaScreen assays using a hexahistidine detection kit from Perkins-Elmer (USA) as described before. The FXR LBD protein was purified as described previously.

[5] = test system: FXR A291W mutation; assay: Reporter assay with mutated FXR; format: cell-based; details: 1 μM, Fig. 8e
[6] = test system: FXR H447F mutation; assay: Reporter assay with mutated FXR; format: cell-based; details: 1 μM, Fig. 8e
Source text: For H447F mutation, the corresponding residue of histidine with a side chain of imidazole group was replaced by the nonpolar phenylalanine with a side chain of benzene ring (Fig. 8c).

[7] = test system: genes related with lipid metabolism / FXR target genes; assay: Real-time PCR of hepatic mRNA levels in treated KK-Ay mice; format: in vivo; details: KK-Ay mice liver
Procedure: as §1
Total RNA was isolated using Tissue RNA kit (Omega Bio-Tek, GA). The first strand cDNA were obtained by TAKARA reverse transcription kit. Real-time quantitative PCR were performed on a CFX96™ Real-Time PCR Detection System (Bio-Rad) using SYBR Premix Ex TaqTM (TAKARA). Relative mRNA expression levels were normalized to actin levels.

[8] = test system: T2, FXR LBD; assay: Peptide profiling / peptide competition AlphaScreen assay; format: biochemical; details: 16 unlabelled peptides (20 μM) competing with biotin-SRC2-3; 1 μM compound
T2 construct: made in house; host or cells: E. coli BL21 (DE3)
Source text: To determine whether there is a conformational difference of FXR with various avermectin analogues, we performed peptide-profiling experiments using a panel of 16 unlabelled peptides selected from both coactivators and corepressors to compete off the binding of the third LXXLL motif of SRC2 (SRC2–3) to FXR in response to the binding of avermectin analogues (Fig. 5).
Values are the means ± SEM of three independent experiments.

[9] = target: T3, FXR (Homo sapiens, UniProt Q96RI1); assay: Cell-based reporter assay, transient transfection of COS-7 cells (EcRE reporter); details: for transcriptional activity of FXR: 1 μM compounds, Fig. 4b, EcRE reporter
T3 sequence (Q96RI1 1-472 isoform Q96RI1-2): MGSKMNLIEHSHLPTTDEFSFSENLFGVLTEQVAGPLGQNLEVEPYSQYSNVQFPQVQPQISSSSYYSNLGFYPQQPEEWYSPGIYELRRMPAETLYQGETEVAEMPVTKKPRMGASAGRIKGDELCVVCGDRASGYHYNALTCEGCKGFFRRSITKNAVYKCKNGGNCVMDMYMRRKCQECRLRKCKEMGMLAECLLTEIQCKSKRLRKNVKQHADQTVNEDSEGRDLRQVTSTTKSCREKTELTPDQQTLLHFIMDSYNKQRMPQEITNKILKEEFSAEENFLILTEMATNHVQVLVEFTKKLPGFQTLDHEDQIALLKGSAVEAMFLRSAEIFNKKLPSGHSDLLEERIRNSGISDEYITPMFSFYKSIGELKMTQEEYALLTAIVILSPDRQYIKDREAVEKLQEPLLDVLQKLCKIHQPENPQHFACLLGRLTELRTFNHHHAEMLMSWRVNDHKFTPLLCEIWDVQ
Source text: Since ligands can regulate the transcriptional activity of nuclear receptors by binding into their ligand binding pocket, we performed cell-based reporter assay to validate the results from AlphaScreen.
COS-7 cells were cotransfected with plasmids enco ding full-length nuclear receptors and their cognate response reporters as follows: human FXR with EcRE- Luc, human LXR(α and β) with LXRE- luc; human VDR with VDRE-luc; Human RXRα with RXRE- luc; human PPARs (α, δ, and γ) with PPRE-Luc; human GR o r PR with the MMTV-Luc; hum an RARα or RARβ with βRE- Luc; human PXR and CAR with PBRE-luc. 5 h after transfection,
were normalized to renilla activity co-transfected as an internal control.

[10] = test system: diabetic mice; details: cited from earlier work

Row | SMILES | impact on other nuclear receptors tested (transactivation) [1] | insulin sensitivity (ITT) [2] | glucose tolerance (GTT) [2] | serum cholesterol level [2] | serum triglyceride level [2] | body weight [2] | hepatic lipid / steatosis by H&E staining of liver sections [2] | lipid accumulation by oil red O staining of liver sections [2] | liver morphology (colour) [2] | serum cholesterol levels [3] | serum glucose levels [3] | amount of lipid in liver sections (oil red O) [3] | coactivators recruitment by FXR (biotin-SRC1–2, biotin-SRC2–3) [4] | transcriptional activity of A291W mutated FXR [5] | hepatic expression of BSEP [7] | hepatic expression of SHP [7] | hepatic level of CYP8b1 [7] | hepatic mRNA level of AKR1B7 [7] | hepatic mRNA level of SCD1 [7] | hepatic mRNA level of SREBP-1c [7] | also measured
1 | CCC(C)C1OC2(C=CC1C)CC1CC(CC=C(C)C(OC3CC(OC)C(OC4CC(OC)C(O)C(C)O4)C(C)O3)C(C)C=CC=C3COC4C(O)C(C)=CC(C(=O)O1)C34O)O2 (centres unmarked) [abamectin] | no substantial impact | significantly improved | significantly improved | significantly decreased | significantly decreased | significantly lower | nearly completely reverse the liver from hepatic steatosis | dramatically reduced the lipid accumulation | much more fresh red tissue | lowered | lowered | significantly reduced the amount of lipid | – | – | – | – | – | – | – | – | –
2 | CO[C@H]1C[C@H](O[C@H]2[C@H](C)O[C@@H](O[C@@H]3/C(C)=C/C[C@@H]4C[C@@H](C[C@]5(C=C[C@H](C)[C@@H](C6CCCCC6)O5)O4)OC(=O)[C@@H]4C=C(C)[C@@H](O)[C@H]5OC/C(=C\C=C\[C@@H]3C)[C@]54O)C[C@@H]2OC)O[C@@H](C)[C@@H]1O [doramectin] | no substantial impact | significantly improved | significantly improved | significantly decreased | significantly decreased | significantly lower | nearly completely reverse the liver from hepatic steatosis | dramatically reduced the lipid accumulation | much more fresh red tissue | lowered | lowered | significantly reduced the amount of lipid | strongly promoted | abolished the transcriptional activity | induced | induced | decreased | dramatically induced | substantially decreased | substantially decreased | recruitment of nuclear receptor corepressor (NCoR)-2 by FXR ([4]; Fig. 4e): induced the recruitment; transcriptional activity of H447F mutated FXR [6]: increased the FXR activity; peptide profile of ligand-bound FXR [8]: identical peptide profiles as the ivermectin; transcriptional activity of FXR [9]: selectively activated; ligand character for FXR ([9]; concluded from AlphaScreen and reporter assays): partial agonists
3 | CCC(C)C1OC2(CCC1C)CC1CC(CC=C(C)C(OC3CC(OC)C(OC4CC(OC)C(O)C(C)O4)C(C)O3)C(C)C=CC=C3COC4C(O)C(C)=CC(C(=O)O1)C34O)O2 (centres unmarked) [ivermectin] | – | – | – | significantly decreased | significantly decreased | significantly lower | nearly completely reverse the liver from hepatic steatosis | dramatically reduced the lipid accumulation | much more fresh red tissue | – | – | significantly reduced the amount of lipid | strongly promoted | abolished the transcriptional activity | induced | induced | decreased | dramatically induced | substantially decreased | substantially decreased | serum cholesterol level [10]: decreased; serum glucose level [10]: decreased
4 | CO/N=C1\C[C@]2(C[C@@H]3C[C@@H](C/C=C(\C)C[C@@H](C)/C=C/C=C4\CO[C@@H]5[C@H](O)C(C)=C[C@@H](C(=O)O3)[C@]45O)O2)O[C@H](/C(C)=C/C(C)C)[C@H]1C [moxidectin] | – | – | – | did not | did not | – | – | – | grease white | – | – | – | failed to induce | – | did not display these regulations | did not display these regulations | did not display these regulations | did not display these regulations | did not display these regulations | did not display these regulations | transcriptional activity of FXR [9]: failed to activate
